From patent US10144746B2 (GLOBAL BLOOD THERAPEUTICS, INC., priority 2015, dated 2018)
Counter-ions that a name gives are not always drawn.

Molecular target: Human plasma kallikrein (Homo sapiens (Human), UniProt P03952)
Experiment: In vitro plasma kallikrein inhibition assay (chromogenic substrate D-Pro-Phe-Arg-pNa, absorbance at 405 nm, IC50 determination)
Type: biochemical
Conditions: for IC50: read-out: KLKB1 pIC50 (converted)

Sequence of Human plasma kallikrein (P03952 391-638): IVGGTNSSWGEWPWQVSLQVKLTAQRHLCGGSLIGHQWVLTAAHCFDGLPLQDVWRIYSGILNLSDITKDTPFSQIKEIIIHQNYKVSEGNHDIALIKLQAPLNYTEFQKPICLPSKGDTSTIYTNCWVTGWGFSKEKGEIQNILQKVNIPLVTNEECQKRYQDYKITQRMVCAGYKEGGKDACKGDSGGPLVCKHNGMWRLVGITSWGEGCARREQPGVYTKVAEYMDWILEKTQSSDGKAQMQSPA
Sequence of Human plasma kallikrein (P03952 20-390 partner): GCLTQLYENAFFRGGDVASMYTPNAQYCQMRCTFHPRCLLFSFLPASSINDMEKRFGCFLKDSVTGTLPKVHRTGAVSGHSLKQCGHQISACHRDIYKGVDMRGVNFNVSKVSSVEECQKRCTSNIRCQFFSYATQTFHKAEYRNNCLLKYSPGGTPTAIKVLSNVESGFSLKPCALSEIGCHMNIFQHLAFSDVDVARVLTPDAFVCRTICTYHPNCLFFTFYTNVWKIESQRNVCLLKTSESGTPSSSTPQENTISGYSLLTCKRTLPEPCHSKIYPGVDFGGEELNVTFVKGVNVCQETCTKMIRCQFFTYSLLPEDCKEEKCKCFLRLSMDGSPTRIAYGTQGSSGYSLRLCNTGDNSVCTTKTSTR

Structure (SMILES) | KLKB1 pIC50 | IC50 [nM]
Cc1cc2c(c(C)c1CNC(=O)c1ccc3c(c1)C1OC3c3ccc(-c4cccc(F)c4F)cc31)CNC2 (racemic) [Example 100, trifluoroacetate salt] | – | 6170
CCc1cc(N)nc(C)c1CNC(=O)c1ccc2c(c1)C1OC2c2ccc(-c3c(C)cc(F)cc3F)cc21 (racemic) [Example 142, (±)-N-[(6-amino-4-ethyl-2-methylpyridin-3-yl)-methyl]-12-(2,4-difluoro-6-methylphenyl)-15-oxatetracyclo[6.6.1.0^2,^7.0^9,1^4] pentadeca-2,4,6,9,11,13-hexaene-4-carboxamide] | – | 1620
CCOc1cc(N)nc(C)c1CNC(=O)c1ccc2c(c1)C1OC2c2ccc(Cn3cccn3)cc21 (racemic) [Example 133, (±)-N-[(6-amino-4-ethoxy-2-methylpyridin-3-yl)methyl]-12-[(1H-pyrazol-1-yl)methyl]-15-oxatetracyclo[6.6.1.0^2,^7.0^9,1^4] pentadeca-2,4,6,9,11,13-hexaene-4-carboxamide] | – | 11
N/C(=N\O)c1ccc(CNC(=O)c2ccc3c(c2)C2OC3c3ccc(-c4ccc(F)cc4F)cc32)cc1F (racemic) [Example 197, (±)-12-(2,4-difluorophenyl)-N-({3-fluoro-4-[N′-hydroxycarbamimidoyl]phenyl}methyl)-15-oxatetracyclo[6.6.1.0^2,^7.0^9,1^4] pentadeca-2,4,6,9,11,13-hexaene-4-carboxamide] | – | 100000
Cc1cc(N)nc(C)c1CNC(=O)c1ccc2c(c1)[C@@H]1O[C@H]2c2ccc(C(=O)N(C)c3ccccc3)cc21 (single isomer, unassigned) [Example 194] | – | 1660
Cc1cc(N)nc(C)c1CNC(=O)c1ccc2c(c1)[C@@H]1O[C@H]2c2ccc(-c3cccnc3C)cc21 (single isomer, unassigned) [Example 212] | – | 70.8
CON=C(N)c1ccc(CNC(=O)c2ccc3c(c2)[C@@H]2O[C@H]3c3ccc(-c4ccc(Cl)s4)cc32)cc1 [Example 251, (1S,8R)-12-(5-chlorothiophen-2-yl)-N-({4-[N′-methoxycarbamimidoyl]phenyl}methyl)-15-oxatetracyclo[6.6.1.0^2,^7.0^9,1^4] pentadeca-2,4,6,9,11,13-hexaene-4-carboxamide] | 4 | –
Cc1cc(N)nc(C)c1CNC(=O)c1ccc2c(c1)[C@@H]1O[C@H]2c2ccc(C(=O)c3ccccc3)cc21 (single isomer, unassigned) [Example 220] | – | 12
Cc1cc(N)nc(C)c1CNC(=O)c1ccc2c(c1)C1OC2c2ccc(-c3c(C)cc(F)cc3F)cc21 (racemic) [Example 141, (±)-N-[(6-amino-2,4-dimethlpyridin-3-yl)-methyl]-12-(2,4-difluoro-6-methylphenyl)-15-oxatetracyclo[6.6.1.0^2,^7.0^9,1^4] pentadeca-2,4,6,9,11,13-hexaene-4-carboxamide] | – | 105
COc1ccc(-n2cnnn2)c(CNC(=O)c2ccc3c(c2)C2OC3c3ccc(-c4ccc(F)cc4F)cc32)c1F (racemic) [Example 129, (±)-12-(2,4-difluorophenyl)-N-{[2-fluoro-3-methoxy-6-(1H-1,2,3,4-tetrazol-1-yl)phenyl]-methyl}-15-oxatetracyclo [6.6.1.0^2,^7.0^9,1^4]-pentadeca-2,4,6,9,11,13-hexaene-4-carboxamide] | – | 234
Cc1nc(N)cc(Cl)c1CNC(=O)c1ccc2c(c1)[C@@H]1O[C@H]2c2ccc(-c3ccc(F)cc3F)cc21 (single isomer, unassigned) [Example 192] | – | 977
Cc1nc(N)cc(C(F)(F)F)c1CNC(=O)c1ccc2c(c1)[C@@H]1O[C@H]2c2ccc(-c3ccc(F)cc3F)cc21 (single isomer, unassigned) [Example 246] | – | 10700
Nc1noc2cc(CNC(=O)c3ccc4c(c3)[C@@H]3O[C@H]4c4ccc(-c5ccc(F)cc5F)cc43)ccc12 (single isomer, unassigned) [Example 205] | – | 1000
Cc1nc(N)cc(C2=CCOC2)c1CNC(=O)c1ccc2c(c1)[C@@H]1O[C@H]2c2ccc(-c3ccc(F)cc3F)cc21 (single isomer, unassigned) [Example 267] | – | 97.7
N=C(N)c1ccc(CNC(=O)c2ccc3c(c2)[C@@H]2O[C@H]3c3ccccc32)cc1 (single isomer, unassigned) [Example 238] | – | 324
Cc1cc(N)nc(C)c1CNC(=O)c1ccc2c(c1)[C@@H]1O[C@H]2c2ccc(N(C)c3cccc(Cl)c3)cc21 (single isomer, unassigned) [Example 262] | – | 8.91
COc1cc(N)nc(C)c1CNC(=O)c1ccc2c(c1)C1OC2c2ccc(-c3ccc(Cl)c(F)c3F)cc21 (stereo not shown) [Example 109, trifluoroacetate salt] | 7.59 | –
Cc1cc(N)nc(C)c1CNC(=O)c1ccc2c(c1)C1OC2c2ccc(Oc3ccc(F)cc3F)cc21 (racemic) [Example 120, (±)-N-[(6-amino-2,4-dimethylpyridin-3-yl)-methyl]-12-(2,4-difluorophenoxy)-15-oxatetra-cyclo[6.6.1.0^2,^7.0^9,1^4] pentadeca-2,4,6,9,11,13-hexaene-4-carboxamide] | – | 676
CCN(c1cccc(F)c1)c1ccc2c(c1)[C@H]1O[C@@H]2c2ccc(C(=O)NCc3c(C)cc(N)nc3C)cc21 (single isomer, unassigned) [Example 230] | – | 12
Cc1cc(N)nc(C)c1CNC(=O)c1ccc2c(c1)[C@@H]1O[C@H]2c2ccc(-c3ccc(Cl)cc3F)cc21 (single isomer, unassigned) [Example 174] | – | 46.8

Further lines, results first:

KLKB1 pIC50 | IC50 [nM] | Structure (SMILES)
8.09 | – | CCc1cc2c(cc1-c1ccc(F)cc1F)C1OC2c2ccc(C(=O)NCc3c(C)cc(N)nc3C)cc21 (racemic) [Example 321, (±)-N-[(6-amino-2,4-dimethyl-pyridin-3-yl)methyl]-12-(2,4-difluorophenyl)-11-ethyl-15-oxatetracyclo[6.6.1.0^2,^7.0^9,1^4] pentadeca-2,4,6,9(14),10,12-hexaene-4-carboxamide and (±)-N-[(6-amino-2,4-dimethylpyridin-3-yl)methyl]-11-(2,4-difluorophenyl)-12-ethyl-15-oxatetracyclo [6.6.1.0^2,^7.0^9,1^4]pentadeca-2,4,6,9(14),10,12-hexaene-4-carboxamide]
– | 5.01 | N=C(N)c1cc(F)c(CNC(=O)c2ccc3c(c2)[C@@H]2O[C@H]3c3ccc(N4CCS(=O)(=O)CC4)cc32)c(F)c1 (single isomer, unassigned) [Example 336]
– | 8.91 | N=C(N)c1ccc(CNC(=O)c2ccc3c(c2)[C@@H]2O[C@H]3c3ccc(-n4cccn4)cc32)cc1 (single isomer, unassigned) [Example 305]
– | 2 | N=C(N)c1cc(F)c(CNC(=O)c2ccc3c(c2)[C@@H]2O[C@H]3c3ccc(-c4nccs4)cc32)c(F)c1 (single isomer, unassigned) [Example 275]
– | 22.9 | Cc1ccc(C(=O)c2ccc3c(c2)[C@H]2O[C@@H]3c3ccc(C(=O)NCc4c(C)cc(N)nc4C)cc32)o1 (single isomer, unassigned) [Example 279]
– | 34.7 | Cc1nc(N)cc(C2CC2)c1CNC(=O)c1ccc2c(c1)[C@@H]1O[C@H]2c2ccc(-c3cc[n+]([O-])cc3F)cc21 (single isomer, unassigned) [Example 278]
– | 28.8 | Cc1cc2c(cc1C)C1OC2c2ccc(C(=O)NCc3ccc(C(=N)N)cc3)cc21 (racemic) [Example 317, (±)-N-[(4-carbamimidoylphenyl)methyl]-11,12-dimethyl-15-oxatetracyclo[6.6.1.0^2,^7.0^9,1^4]-pentadeca-2,4,6,9(14),10,12-hexaene-4-carboxamide]
– | 1 | N=C(N)c1cc(F)c(CNC(=O)c2ccc3c(c2)[C@@H]2O[C@H]3c3ccc(CCC(F)(F)F)cc32)c(F)c1 (single isomer, unassigned) [Example 296]
– | 398 | Cc1cc(N)nc(C)c1CNC(=O)c1cc(F)c2c(c1)C1OC2c2cc(-c3ccc(F)cc3)cc(C)c21 (racemic) [Example 398, N-[(6-amino-2,4-dimethyl-pyridin-3-yl)methyl]-6-fluoro-11-(4-fluorophenyl)-13-methyl-15-oxatetracyclo[6.6.1.0^2,^7.0^9,1^4] pentadeca-2,4,6,9(14),10,12-hexaene-4-carboxamide]
– | 1 | Cc1cc(C(=N)N)ccc1CNC(=O)c1ccc2c(c1)[C@@H]1O[C@H]2c2ccc(-n3cccn3)cc21 (single isomer, unassigned) [Example 312]
5.61 | – | CON=C(N)c1ccc(CNC(=O)c2ccc3c(c2)[C@@H]2O[C@H]3c3ccc(C4CC4)cc32)cc1 [Example 272, (1R,8S)-12-cyclopropyl-N-({4-[N′-methoxy-carbamimidoyl]phenyl}methyl)-15-oxatetracyclo[6.6.1.0^2,^7.0^9,1^4] pentadeca-2,4,6,9,11,13-hexaene-4-carboxamide]
– | 427 | N=C(N)c1ccc(CNC(=O)c2ccc3c(c2)[C@@H]2O[C@H]3c3ccc(C4CC4)cc32)nc1 (single isomer, unassigned) [Example 327]
– | 209 | CCc1cc2c(cc1CC)C1OC2c2ccc(C(=O)NCc3c(C)cc(N)nc3C)cc21 (racemic) [Example 303, (±)-N-[(6-amino-2,4-dimethyl-pyridin-3-yl)methyl]-11,12-diethyl-15-oxatetracyclo [6.6.1.0^2,^7.0^9,1^4]pentadeca-2,4,6,9(14),10,12-hexaene-4-carboxamide]
– | 63.1 | N=C(N)c1ccc(CNC(=O)c2ccc3c(c2)[C@@H]2O[C@H]3c3ccc(-c4ccc(F)cc4F)cc32)nc1 (single isomer, unassigned) [Example 332]
– | 6.31 | CC(C)(F)c1ccc2c(c1)[C@H]1O[C@@H]2c2ccc(C(=O)NCc3ccc(C(=N)N)cc3)cc21 (single isomer, unassigned) [Example 284]
– | 100000 | O=C(N[C@@H]1CCNC1)c1ccc2c(c1)[C@@H]1O[C@H]2c2ccc(-c3ccc(F)cc3F)cc21 (single isomer, unassigned) [Example 324]
– | 7.08 | CC(C)c1ccc2c(c1)[C@H]1O[C@@H]2c2ccc(C(=O)NCc3ccc(C(=N)N)cc3)cc21 (single isomer, unassigned) [Example 328]
